Measured values published in patent US10716791B2, “Inhibitors of peptidyl arginine deiminase (PAD) enzymes and uses thereof” (UNIVERSITY HEALTH NETWORK, priority 2015, dated 2020).
Read-outs that look alike come from different tables or passages of the source.

Assays:
PAD4 [1] = target: T1, PAD4 (Homo sapiens (Human), UniProt Q9UM07); assay: Inhibition of PAD activity (Example 53), PAD4; conditions: for PAD4 Ki ± std error / Ki: Table 5; for remaining activity at 100 µM / remaining activity at 1000 µM: read-out: Remaining activity of PAD4; for Ki: read-out: PAD4 Ki ± std error
T1 sequence (Q9UM07 whole entry): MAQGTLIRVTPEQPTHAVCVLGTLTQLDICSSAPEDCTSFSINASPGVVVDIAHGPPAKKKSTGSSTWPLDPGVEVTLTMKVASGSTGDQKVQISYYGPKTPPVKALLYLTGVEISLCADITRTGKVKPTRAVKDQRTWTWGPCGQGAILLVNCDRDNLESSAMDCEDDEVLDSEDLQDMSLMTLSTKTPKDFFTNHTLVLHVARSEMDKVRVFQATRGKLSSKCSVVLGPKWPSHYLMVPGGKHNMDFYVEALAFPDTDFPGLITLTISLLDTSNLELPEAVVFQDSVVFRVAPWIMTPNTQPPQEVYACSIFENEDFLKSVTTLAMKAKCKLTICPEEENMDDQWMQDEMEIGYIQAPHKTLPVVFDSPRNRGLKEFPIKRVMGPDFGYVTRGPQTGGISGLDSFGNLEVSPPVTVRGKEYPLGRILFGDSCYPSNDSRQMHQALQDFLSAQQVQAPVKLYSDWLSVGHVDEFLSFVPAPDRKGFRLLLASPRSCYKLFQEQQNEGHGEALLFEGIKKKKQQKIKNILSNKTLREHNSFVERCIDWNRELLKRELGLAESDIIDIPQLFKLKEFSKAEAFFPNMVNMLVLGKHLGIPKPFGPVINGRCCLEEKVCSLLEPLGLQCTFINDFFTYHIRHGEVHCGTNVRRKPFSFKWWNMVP
Protocol: (§1) Materials: PAD1, PAD2, PAD3 and PAD4 were purchased from commercial sources. Assay buffer: 50 mM Tris pH 7.5, 100 mM NaCl, 10 mM CaCl2, 5 mM DTT.
(§2) The inhibitor (12.5 μL of stock) was mixed with appropriate amount of substrate (BAEE) stock solution and preincubated at 37° C. for a period in the range of 0-60 min. The reaction was initiated by the addition of the enzyme. The reaction samples were incubated for a period in the range of 0-60 min. […] Samples were cooled on ice, vortexed and centrifuged. 200 μL aliquots were transferred to the 96-well plate and the absorbance was measured at 530 nm and the remaining activity was computed. The remaining activity data were plotted versus inhibitor concentration and fitted to the dose-response equation to calculate IC50.

mPAD2 = mPAD2 (Mus musculus (Mouse), UniProt Q08642); assay: Enzyme inhibition kinetics (Example 54), mPAD2; format: biochemical; conditions: for Ki: Table 6; for Selectivity ratio of inhibition, mPAD2 (PAD4): mPAD2 versus PAD4
Chain of mPAD2 (Q08642 whole entry): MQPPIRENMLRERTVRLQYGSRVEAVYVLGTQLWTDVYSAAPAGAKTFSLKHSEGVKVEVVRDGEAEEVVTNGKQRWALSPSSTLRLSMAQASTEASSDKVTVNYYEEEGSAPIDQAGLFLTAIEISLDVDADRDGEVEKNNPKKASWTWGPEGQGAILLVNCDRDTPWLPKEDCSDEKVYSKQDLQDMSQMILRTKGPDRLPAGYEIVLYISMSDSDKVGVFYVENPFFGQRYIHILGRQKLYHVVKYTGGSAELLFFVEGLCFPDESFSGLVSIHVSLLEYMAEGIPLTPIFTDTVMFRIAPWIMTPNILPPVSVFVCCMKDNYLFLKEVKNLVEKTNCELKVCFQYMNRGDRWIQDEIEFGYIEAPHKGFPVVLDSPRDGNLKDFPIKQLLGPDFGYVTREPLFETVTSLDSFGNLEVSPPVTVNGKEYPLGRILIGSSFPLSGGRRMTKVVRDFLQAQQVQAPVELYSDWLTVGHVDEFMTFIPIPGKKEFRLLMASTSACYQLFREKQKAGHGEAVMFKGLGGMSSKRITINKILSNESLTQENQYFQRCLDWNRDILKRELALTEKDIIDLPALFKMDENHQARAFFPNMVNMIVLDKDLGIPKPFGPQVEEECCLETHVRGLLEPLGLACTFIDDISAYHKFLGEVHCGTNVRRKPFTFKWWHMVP

CHO cells = assay: CHO cell toxicity assay; format: cell-based; conditions: Cricetulus griseus
PAD1 [2] = target: T2, PAD1 (Homo sapiens (Human), UniProt Q9ULC6); assay: Enzyme inhibition kinetics (Example 54), hPAD1; format: biochemical; conditions: for Ki: Table 6
T2 sequence (Q9ULC6 whole entry): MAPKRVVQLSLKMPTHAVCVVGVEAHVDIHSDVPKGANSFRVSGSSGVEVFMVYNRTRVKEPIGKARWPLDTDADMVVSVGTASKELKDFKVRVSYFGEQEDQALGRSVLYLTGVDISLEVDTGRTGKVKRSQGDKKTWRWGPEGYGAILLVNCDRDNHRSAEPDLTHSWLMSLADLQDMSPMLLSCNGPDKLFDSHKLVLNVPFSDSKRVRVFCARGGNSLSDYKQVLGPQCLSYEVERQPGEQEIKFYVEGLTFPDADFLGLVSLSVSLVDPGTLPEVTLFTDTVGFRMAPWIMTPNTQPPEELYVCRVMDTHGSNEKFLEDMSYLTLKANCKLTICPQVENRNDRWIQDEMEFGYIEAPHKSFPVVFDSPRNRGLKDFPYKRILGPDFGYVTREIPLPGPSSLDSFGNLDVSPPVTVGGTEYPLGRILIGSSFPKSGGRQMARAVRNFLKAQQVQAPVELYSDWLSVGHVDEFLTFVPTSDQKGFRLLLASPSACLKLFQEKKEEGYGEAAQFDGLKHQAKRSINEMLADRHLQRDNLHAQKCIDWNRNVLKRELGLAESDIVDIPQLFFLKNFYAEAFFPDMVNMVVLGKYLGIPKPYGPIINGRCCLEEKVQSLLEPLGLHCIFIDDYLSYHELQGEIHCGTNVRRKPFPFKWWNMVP

PAD2 = PAD2 (Mus musculus (Mouse), UniProt Q08642); assay: Inhibition of PAD activity (Example 53), PAD2; conditions: for remaining activity at 100 µM / remaining activity at 1000 µM: read-out: Remaining activity of PAD2
Chain of PAD2 (Q08642 whole entry): as the sequence (Q08642 whole entry) above
Protocol: as §1, §2

PAD1 [3] = target: T2, PAD1; assay: Inhibition of PAD activity (Example 53), PAD1; conditions: Table 5; for Ki: read-out: PAD1 Ki ± std error
Protocol: as §1, §2

PADs = assay: Enzymatic assays with hPAD1, mPAD2 and hPAD4, stated for PADs overall; format: biochemical; conditions: summary of Table 6; read-out: Ki, activity towards PADs
PAD4 [4] = target: T1, PAD4; assay: Enzyme inhibition kinetics (Example 54), hPAD4; format: biochemical; conditions: for Ki: Table 6
animal models of MS = conditions: cited from earlier work
PAD enzymes = conditions: most potent non-peptidic compounds from the literature; cited from earlier work
[5] = read-out: PAD2 Ki ± std error, Table 5
[6] = read-out: PAD2 inhibition constant Ki ± Std Error, Table 1

CC(C)NC(=O)[C@H](CN1CCN(C)CC1)NC(=O)N1CCCCC1 [KP-290]
PAD4 Ki ± std error (PAD4 [1]): No inhibition up to 10 mM

CC(C)NC(=O)[C@H](CCN1CCN(C)CC1)NC(=O)N1CCOCC1 [KP-287, (S)—N-(1-(Isopropylamino)-4-(4-methylpiperazin-1-yl)-1-oxobutan-2-yl)morpholine-4-carboxamide]
Ki (mPAD2): > 10000 µM | IC50 (CHO cells): > 2000 µM | Ki (PAD1 [2]): > 10000 µM | PAD4 Ki ± std error (PAD4 [1]): No inhibition up to 10 mM | Ki (PAD2; [5]): 600 ± 1330 µM | PAD1 Ki ± std error (PAD1 [3]): Some inhibition but IC50 not calculated - no Ki | Ki (PADs): 200 to 500 µM | Ki (PAD4 [4]): > 10000 µM

O=C(N[C@@H](CCO)C(=O)Nc1ccccc1)OCc1ccccc1 [KP-231]
remaining activity at 100 µM (PAD4 [1]): 100 ± 4.6% | remaining activity at 1000 µM (PAD4 [1]): 82.3 ± 3.7% | remaining activity at 100 µM (PAD2): 44.4 ± 0.5% | remaining activity at 1000 µM (PAD2): 45.5 ± 1.1%

O=C(Nc1ccccc1)[C@H](CC(=O)N1CCNCC1)NC(=O)N1CCOCC1 [KP-229]
remaining activity at 100 µM (PAD4 [1]): 100 ± 5.5% | remaining activity at 1000 µM (PAD4 [1]): 100 ± 2.6% | remaining activity at 100 µM (PAD2): 54 ± 2.7% | remaining activity at 1000 µM (PAD2): 63.3 ± 2%

CC(C)(C)OC(=O)N[C@@H](CN=[N+]=[N-])C(=O)NCc1ccccc1 [KP-306]
PAD4 Ki ± std error (PAD4 [1]): No inhibition up to 10 mM | PAD2 Ki ± std error (PAD2; Table 5): No inhibition up to 10 mM | PAD1 Ki ± std error (PAD1 [3]): No inhibition up to 10 mM

O=C(N[C@@H](CCn1ccnc1)C(=O)NCc1ccccc1)c1ccco1 [KP-301, (S)—N-(1-(Benzylamino)-4-(1 [H]-imidazol-1-yl)-1-oxobutan-2-yl) furan-2-carboxamide]
Ki (mPAD2): > 10000 µM | Ki (PAD1 [2]): > 10000 µM | PAD4 Ki ± std error (PAD4 [1]): No inhibition up to 10 mM | PAD2 Ki ± std error (PAD2; Table 5): No inhibition up to 10 mM | PAD1 Ki ± std error (PAD1 [3]): No inhibition up to 10 mM | Ki (PADs): 200 to 500 µM | Ki (PAD4 [4]): > 10000 µM

O=C(N[C@@H](CC(=O)N1CCNCC1)C(=O)Nc1ccccc1)c1ccco1 [KP-230]
remaining activity at 100 µM (PAD4 [1]): 96.9 ± 7.6% | remaining activity at 1000 µM (PAD4 [1]): 82.4 ± 1.7% | remaining activity at 100 µM (PAD2): 55.1 ± 0.5% | remaining activity at 1000 µM (PAD2): 33.5 ± 0.4%

O=C(NCc1ccccc1)[C@H](Cn1ccnc1)NC(=O)N1CCCCC1 [KP-304]
PAD4 Ki ± std error (PAD4 [1]): No inhibition up to 10 mM | Ki (PAD2; [5]): 5300 ± 7830 µM

CC(C)NC(=O)[C@H](CN1CCN(C)CC1)NC(=O)N1CCOCC1 [KP-291]
PAD4 Ki ± std error (PAD4 [1]): No inhibition up to 10 mM | PAD2 Ki ± std error (PAD2; Table 5): No inhibition up to 10 mM | PAD1 Ki ± std error (PAD1 [3]): No inhibition up to 10 mM

CC(C)NC(=O)[C@H](CCN1CCN(C)CC1)NC(=O)C1CCCCC1 [KP-295, (S)—N-(1-(Isopropylamino)-4-(4-methylpiperazin-1-yl)-1-oxobutan-2yl) cyclohexanecarboxamide]
Ki (mPAD2): > 10000 µM | PAD4 Ki ± std error (PAD4 [1]): No inhibition up to 10 mM | PAD2 Ki ± std error (PAD2; Table 5): No inhibition up to 10 mM | Ki (PAD4 [4]): > 10000 µM

CC(C)NC(=O)[C@H](CCN1CCN(C)CC1)NC(=O)c1ccco1 [KP-289, (S)—N-(1-(Isopropylamino)-4-(4-methylpiperazin-1-yl)-1-oxobutan-2-yl)furan-2-carboxamide]
Ki (mPAD2): 1840 ± 2420 µM | Selectivity ratio of inhibition, mPAD2 (PAD4) (mPAD2): 0.3 (PAD4) | IC50 (CHO cells): > 2000 µM | Ki (PAD4 [1]): 488 ± 47 µM | Ki (PAD2; [5]): 1790 ± 2420 µM | Ki (PAD4 [4]): 488 ± 47 µM | Selectivity ratio of inhibition, hPAD4 (PAD2) (PAD4 [4]; hPAD4 versus PAD2): 3.7 (PAD2)

N=C(N)CCl [Compound 2CA, 2-chloroacetamidine]
MS disease (animal models of MS; four animal models of MS): attenuated MS disease | PAD activity in the brain (animal models of MS; four animal models of MS): decreased PAD activity in the brain | amount of citrullinated protein (animal models of MS; four animal models of MS): decreased the amount of citrullinated protein | disease after therapy cessation at 6 months (animal models of MS; one murine model): fully progressive clinical disease re-emerged promptly | disease with early and prolonged administration (animal models of MS; one murine model): essentially prevented the disease

CC(C)(C)OC(=O)N[C@H](CCO)C(=O)NCc1ccccc1 [KP-311]
PAD4 Ki ± std error (PAD4 [1]): No inhibition up to 10 mM | PAD2 Ki ± std error (PAD2; Table 5): No inhibition up to 10 mM | PAD1 Ki ± std error (PAD1 [3]): No inhibition up to 10 mM

COC(=O)[C@H](Cn1ccnc1)NC(=O)c1ccco1 [KP-298]
Ki (PAD4 [1]): 1240 ± 1390 µM | Ki (PAD2; [5]): 662 ± 210 µM | Ki (PAD1 [3]): 785 ± 384 µM

Cn1cccc1C(=O)N[C@@H](Cn1ccnc1)C(=O)NCc1ccccc1 [KP-305]
Ki (PAD2; [5]): 58 ± 5 µM | Ki (PAD1 [3]): 147 ± 52 µM

COC(=O)[C@H](CN1CCNCC1)NC(=O)C1CCCCC1 [KP-224]
Ki (PAD2; [6]): 21.3 ± 3.4 µM

COC(=O)[C@H](CCN1CCNCC1)NC(=O)c1ccco1 [KP-226, (S)-Methyl 2-(furan-2-carboxamido)-4-(piperazin-1-yl)butanoate]
Ki (PAD2; [5]): 286 ± 27 µM | Ki (PAD2; [6]): 19.7 ± 2 µM

O=C(N[C@@H](CCn1ccnn1)C(=O)NCc1ccccc1)c1ccc(F)cc1 [KP-316, (S)—N-(1-(Benzylamino)-1-oxo-4-(1[H]-1,2,3-triazol-1-yl)butan-2-yl)-4-fluorobenzamide]
Ki (PAD1 [2]): > 10000 µM | PAD4 Ki ± std error (PAD4 [1]): Some inhibition but IC50 can't be calculated - no Ki | PAD2 Ki ± std error (PAD2; Table 5): Some inhibition but IC50 can't be calculated - no Ki | Ki (PAD1 [3]): 77700 ± 91500 µM

CC(C)NC(=O)[C@H](CCn1cnc(CC#N)c1)NC(=O)c1ccco1 [KP-288, (S)—N-(4-(4-(Cyanomethyl)-1[H]-imidazol-1-yl)-1-(isopropylamino)-1-oxobutan-2-yl)furan-2-carboxamide]
Ki (mPAD2): 1000 ± 876 µM | Selectivity ratio of inhibition, mPAD2 (PAD1) (mPAD2; mPAD2 versus PAD1): 0.4 | Selectivity ratio of inhibition, mPAD2 (PAD4) (mPAD2): 0.6 | IC50 (CHO cells): > 2000 µM | inhibitor efficacy towards hPAD1 in comparison to other isozymes (PAD1 [2]): at least 3 fold | Ki (PAD1 [2]): 353 ± 23 µM | Selectivity ratio of inhibition, hPAD1 (PAD2) (PAD1 [2]; hPAD1 versus PAD2, ratios greater than 2-fold suggest selectivity): 2.8 | Selectivity ratio of inhibition, hPAD1 (PAD4) (PAD1 [2]; hPAD1 versus PAD4): 1.6 | Ki (PAD4 [1]): 591 ± 77 µM | Ki (PAD2; [5]): 176 ± 62 µM | Ki (PAD1 [3]): 914 ± 59 µM | Ki (PAD4 [4]): 591 ± 77 µM | Selectivity ratio of inhibition, hPAD4 (PAD1) (PAD4 [4]; hPAD4 versus PAD1): 0.6

CN(C)[C@@H]1C(O)=C(C(N)=O)C(=O)[C@@]2(O)C(O)=C3C(=O)c4c(O)ccc(Cl)c4[C@@](C)(O)[C@H]3C[C@@H]12 [chlortetracycline]
IC50 (PAD enzymes): 100 µM

O=C(N[C@@H](Cn1ccnc1)C(=O)OCc1ccccc1)c1ccco1 [KP-300]
Ki (PAD4 [1]): 1070 ± 427 µM | Ki (PAD2; [5]): 739 ± 339 µM | PAD1 Ki ± std error (PAD1 [3]): No inhibition up to 10 mM

O=C(N[C@@H](CCN1CCNCC1)C(=O)NCc1ccccc1)c1ccco1 [KP-228, (S)—N-(1-(Benzylamino)-1-oxo-4-(piperazin-1-yl)butan-2-yl)furan-2-carboxamide]
remaining activity at 100 µM (PAD4 [1]): 96.4 ± 10.4% | remaining activity at 1000 µM (PAD4 [1]): 82.1 ± 7.2% | remaining activity at 100 µM (PAD2): 58.6 ± 3.6% | remaining activity at 1000 µM (PAD2): 31.8 ± 4.9%

CC(C)NC(=O)[C@H](Cn1ccnc1)NC(=O)N1CCOCC1 [KP-292]
Ki (PAD4 [1]): ~14900 µM

O=C(N[C@@H](CN1CCNCC1)C(=O)NCc1ccccc1)c1ccco1 [KP-227, (S)—N-(1-(Benzylamino)-1-oxo-3-(piperazin-1-yl)propan-2-yl)furan-2-carboxamide]
remaining activity at 100 µM (PAD4 [1]): 100 ± 1.3% | remaining activity at 1000 µM (PAD4 [1]): 82.2 ± 2.4% | remaining activity at 100 µM (PAD2): 63.7 ± 0.6% | remaining activity at 1000 µM (PAD2): 68.2 ± 2.3%

COC(=O)[C@H](CN1CCNCC1)NC(=O)c1ccco1 [KP-225, (S)-Methyl 2-(furan-2-carboxamido)-3-(piperazin-1-yl)propanoate]
remaining activity at 100 µM (PAD4 [1]): 78.7 ± 9.5% | remaining activity at 1000 µM (PAD4 [1]): 62.2 ± 2.7% | remaining activity at 100 µM (PAD2): 86.6 ± 3% | remaining activity at 1000 µM (PAD2): 70.8 ± 1.7%

CC(C)(C)OC(=O)N[C@H](CCN=[N+]=[N-])C(=O)NCc1ccccc1 [KP-310]
Ki (PAD4 [1]): 1450 ± 187 µM | Ki (PAD2; [5]): 1430 ± 186 µM | Ki (PAD1 [3]): 3430 ± 1940 µM

CC(C)NC(=O)[C@H](CCn1ccnc1)NC(=O)c1ccco1 [KP-286, (S)—N-(4-(1[H]-imidazol-1-yl)-1-(isopropylamino)-1-oxobutan-2-yl) furan-2-carboxamide]
Ki (mPAD2): 554 ± 93 µM | IC50 (CHO cells): 546 ± 136 µM | Ki (PAD1 [2]): 964 ± 689 µM | Ki (PAD2; [5]): 554 ± 93 µM | Ki (PAD1 [3]): 2500 ± 1780 µM
